{"source": "patent US10550127B1", "about": "“Indanylaminoazadihydrobenzofuranylacetic acids, pharmaceutical compositions for the treatment of diabetes” (Boehringer Ingelheim International GmbH, priority 2017, dated 2020)", "data": [{"molecular_target": "human GPR40 receptor (Homo sapiens (Human), UniProt O14842)", "sequence (O14842 whole entry)": "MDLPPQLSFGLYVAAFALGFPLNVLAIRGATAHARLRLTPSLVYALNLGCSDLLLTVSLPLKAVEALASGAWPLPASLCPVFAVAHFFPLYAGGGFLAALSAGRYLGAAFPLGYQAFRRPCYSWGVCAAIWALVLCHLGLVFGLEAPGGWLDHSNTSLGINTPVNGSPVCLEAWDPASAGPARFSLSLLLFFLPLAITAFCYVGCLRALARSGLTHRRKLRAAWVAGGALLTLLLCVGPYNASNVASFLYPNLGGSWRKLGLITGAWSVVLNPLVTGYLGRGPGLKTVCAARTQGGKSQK", "test": "IP1 accumulation measurements using the IPOne assay system", "format": "cell-based", "settings": "1321N1 cells stably expressing human GPR40, 1 h stimulation", "procedure": "IP1 accumulation measurements using the IPOne assay system—1321N1 cells stably expressing human GPR40 receptor (Euroscreen, Belgium) are seeded 24 h before the assay in white 384-well plates in culture medium containing 10% FCS, 1% Na-Pyruvate and 400 μg/mL G418. IP1 is assayed according to the manufacturer's description (Cisbio Bioassays, France). In brief, the assay is started by substitution of the culture medium by stimulation buffer (Hepes 10 mM, CaCl2) 1 mM, MgCl2 0.5 mM, KCl 4.2 mM, NaCl 146 mM, glucose 5.5 mM and LiCl 50 mM, pH 7.4). Cells are stimulated for 1 h at 37° C., 5% CO2 by addition of the compounds that are diluted in stimulation buffer containing LiCl. Assays are stopped by adding HTRF-conjugates (IP1-d2 and Anti-IP1 cryptate Tb) and lysis buffer, provided by the manufacturer. After an incubation time of 1 h at room temperature plates are measured using an EnVision™, Perkin Elmer. The obtained fluorescence ratios at 665/615 […] are then used to calculate the pEC50 values using Assay Explorer 3.3 Software (Accelrys, Inc.) by interpolation using an IP1 reference curve and subsequent sigmoidal curve fitting allowing for a variable hill slope.", "units": {"EC50": "nM"}, "values": [{"molecule": "Cc1cc(-c2cc(=O)n(C)cn2)cc(C)c1-c1ccc(F)c2c1CC[C@H]2Nc1cc2c(cn1)[C@H](CC(=O)O)CO2", "note": "[Example 18, ((S)-6-{(R)-4-[2,6-Dimethyl-4-(1-methyl-6-oxo-1,6-dihydro-pyrimidin-4-yl)-phenyl]-7-fluoro-indan-1-ylamino}-2,3-dihydro-furo[3,2-c]pyridin-3-yl)-acetic Acid]", "EC50": 14}, {"molecule": "Cc1cc(OCC(C)(C)O)cc(C)c1-c1ccc(F)c2c1CC[C@H]2Nc1cc2c(cn1)[C@H](CC(=O)O)CO2", "note": "[Example 13, ((S)-6-{(R)-7-Fluoro-4-[4-(2-hydroxo-2-methyl-propoxy)-2,6-dimethyl-phenyl]-indan-1-ylamino}-2,3-dihydro-furo[3,2-c]pyridin-3-yl)-acetic Acid]", "EC50": 35}, {"molecule": "Cc1cc(-c2nnn(C)n2)cc(C)c1-c1ccc(F)c2c1CC[C@H]2Nc1cc2c(cn1)[C@@H](CC(=O)O)CO2", "note": "[Example 6, ((R)-6-{(R)-4-[2,6-Dimethyl-4-(2-methyl-2H-tetrazol-5-yl)-phenyl]-7-fluoro-indan-1-ylamino}-2,3-dihydro-furo[3,2-c]pyridin-3-yl)-acetic Acid]", "EC50": 382}, {"molecule": "Cc1cc(-c2ccn(C)c(=O)n2)cc(C)c1-c1ccc(F)c2c1CC[C@H]2Nc1cc2c(cn1)[C@H](CC(=O)O)CO2", "note": "[Example 16, ((S)-6-{(R)-4-[2,6-Dimethyl-4-(1-methyl-2-oxo-1,2-dihydro-pyrimidin-4-yl)-phenyl]-7-fluoro-indan-1-ylamino}-2,3-dihydro-furo[3,2-c]pyridin-3-yl)-acetic acid]", "EC50": 27}, {"molecule": "Cc1cc(O[C@H]2CCOC2)cc(C)c1-c1ccc(F)c2c1CC[C@H]2Nc1cc2c(cn1)[C@H](CC(=O)O)CO2", "note": "[Example 12, [(S)-6-((R)-4-{2,6-Dimethyl-4-[(S)-(tetrahydro-furan-3-yl)oxy]-phenyl}-7-fluoro-indan-1-ylamino)-2,3-dihydro-furo[3,2-c]pyridin-3-yl]-acetic Acid]", "EC50": 73}, {"molecule": "Cc1cc(OCC2(C)COC2)cc(C)c1-c1ccc(F)c2c1CC[C@H]2Nc1cc2c(cn1)[C@H](CC(=O)O)CO2", "note": "[Example 11, ((S)-6-{(R)-4-[2,6-Dimethyl-4-(3-methyl-oxetan-3-ylmethoxy)-phenyl]-7-fluoro-indan-1-ylamino}-2,3-dihydro-furo[3,2-c]pyridin-3-yl)-acetic Acid]", "EC50": 37}, {"molecule": "Cc1cc(-c2ccc(=O)n(C)c2)cc(C)c1-c1ccc(F)c2c1CC[C@H]2Nc1cc2c(cn1)[C@H](CC(=O)O)CO2", "note": "[Example 19, ((S)-6-{(R)-4-[2,6-Dimethyl-4-(1-methyl-6-oxo-1,6-dihydro-pyridin-3-yl)-phenyl]-7-fluoro-indan-1-ylamino}-2,3-dihydro-furo[3,2-c]pyridin-3-yl)-acetic Acid]", "EC50": 27}, {"molecule": "Cc1cc(-c2nnn(C)n2)cc(C)c1-c1cccc2c1CC[C@H]2Nc1cc2c(cn1)[C@H](CC(=O)O)CO2", "note": "[Example 7, ((S)-6-{(R)-4-[2,6-Dimethyl-4-(2-methyl-2H-tetrazol-5-yl)-phenyl]-indan-1-ylamino}-2,3-dihydro-furo[3,2-c]pyridin-3-yl)-acetic Acid]", "EC50": 7}, {"molecule": "Cc1cc(-c2nnn(C)n2)cc(C)c1-c1cccc2c1CC[C@H]2Nc1cc2c(cn1)[C@@H](CC(=O)O)CO2", "note": "[Example 8, ((R)-6-{(R)-4-[2,6-Dimethyl-4-(2-methyl-2H-tetrazol-5-yl)-phenyl]-indan-1-ylamino}-2,3-dihydro-furo[3,2-c]pyridin-3-yl)-acetic acid]", "EC50": 378}, {"molecule": "Cc1cc(-c2ccn(C)c(=O)c2)cc(C)c1-c1ccc(F)c2c1CC[C@H]2Nc1cc2c(cn1)[C@H](CC(=O)O)CO2", "note": "[Example 17, ((S)-6-{(R)-4-[2,6-Dimethyl-4-(1-methyl-2-oxo-1,2-dihydro-pyridin-4-yl)-phenyl]-7-fluoro-indan-1-ylamino}-2,3-dihydro-furo[3,2-c]pyridin-3-yl)-acetic Acid]", "EC50": 12}]}]}
